Experiments:
Tec kinase = target: T1, Tec kinase (Homo sapiens, UniProt P42680); experiment: Tec Kinase Activity Assay; type: biochemical; conditions: test concentration not given
T1 sequence (P42680 1-631): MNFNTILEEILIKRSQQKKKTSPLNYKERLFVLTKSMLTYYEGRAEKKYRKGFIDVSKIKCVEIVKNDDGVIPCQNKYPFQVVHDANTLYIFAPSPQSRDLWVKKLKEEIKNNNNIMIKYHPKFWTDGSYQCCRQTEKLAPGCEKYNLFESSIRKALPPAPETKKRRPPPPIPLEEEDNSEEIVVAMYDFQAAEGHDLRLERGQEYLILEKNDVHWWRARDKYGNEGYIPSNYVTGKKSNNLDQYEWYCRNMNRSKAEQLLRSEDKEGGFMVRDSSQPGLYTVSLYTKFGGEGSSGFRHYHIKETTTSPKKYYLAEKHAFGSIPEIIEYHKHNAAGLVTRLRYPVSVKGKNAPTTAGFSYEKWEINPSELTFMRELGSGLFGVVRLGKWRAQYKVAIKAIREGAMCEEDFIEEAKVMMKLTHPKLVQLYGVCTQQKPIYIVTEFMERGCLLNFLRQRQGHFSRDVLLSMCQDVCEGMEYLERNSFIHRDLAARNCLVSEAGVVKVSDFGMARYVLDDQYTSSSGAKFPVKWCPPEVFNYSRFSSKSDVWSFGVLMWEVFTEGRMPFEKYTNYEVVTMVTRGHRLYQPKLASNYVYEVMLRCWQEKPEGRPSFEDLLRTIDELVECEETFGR
Experimental: Tec Kinase Activity Assay
(§1) The disclosed compounds were assayed for their ability to inhibit the activity of Tec kinase. Nunc Maxisorb plates were coated with streptavidin by overnight incubation with 100 μL per well of 1 μg/mL Streptavidin in DPBS. Prior to the start of the experiment, the plates were washed with TBST (3×200 μL) and blocked for at least 1 hour by adding 150 μL of 5% BSA/TBST. The plates were washed with TBST (3×200 μL/well) and left dry immediately before the capture step.
The test articles and controls (Staurosporine and Sutent) were prepared using the following assay buffer at 3× desired final concentration (50 mM Tris-HCl, 0.02 mg/mL BSA, 10 mM MgCl2, 0.1 mM Na3VO4, 1 mM EGTA, 75 μM ATP0.01% NP-40, 2 mM DTT in 10% glycerol/water). In a reaction plate were added rapidly 20 μL test article (or control) and 20 μL TEC 0.25 ng/μL. The plate was incubated for 30 minutes. To the reaction plate was added 20 μL of Pyk-2 0.5 ng/μL. The plate was incubated at room temperature for two hours.
(§2) From the reaction plate, 50 μL was transferred to the streptavidin coated plate. The capture plate was incubated at room temperature for 30 minutes then washed 6× with TBST. To the capture plate was added 100 μL/well of Cell Signaling anti-phospho tyrosine at a dilution of 1:3000 in 2% BSA/TBST. The plate was incubated for one hour at room temperature then washed 6× with TBST. To the capture plate was added 100 μL/well of Alkaline Phosphatase Tagged Goat anti Mouse Antibody at a dilution of 1:4000 in 2% BSA/TBST. The plate was incubated for one hour at room temperature then washed 6× with TBST. The fluorescent readout was initiated by the addition of 100 μL/well of Attophos reagent (6 mg/10 mL). The reading was done on the Perkin Elmer Envision system.

DLD-1 cancer cells = experiment: MTS Assay; type: cell-based; conditions: Homo sapiens, DLD-1 cells, 72 h
Experimental: Cells were maintained at 37° C., 5% CO2 in DMEM media supplemented with 1% fetal bovine serum, penicillin/streptomycin and fungizone (Invitrogen). Cells were seeded into 96-well tissue culture plates at 3000 per well and cultured at 37° C. for 18 hours. Test compounds were dissolved and diluted to 300× in DMSO then diluted 1:40 in DMEM. Cells were incubated with test compounds for 72 hours followed by incubation with tetrazolium compound (3-(4,5-dimethylthiazol-2-yl)-5-(3-carboxymethoxyphenyl)-2-(4-sulfophenyl)-2H-tetrazolium, inner salt; MTS) and the electron coupling reagent, phenazine methosulfate (PMS) for 4 hours. […] The ability of compounds to inhibit cell growth in this assay is correlated with the reduction of dehydrogenase enzyme activity found in metabolically active cells. The measurement of the absorbance of the formazan was assessed using a Victor (Perkin Elmer) microplate reader at 492 nm. The calculated IC50 value is the concentration of the test compound that causes a 50% decrease in the absorbance.

RET kinase = RET kinase (Homo sapiens, UniProt P07949); experiment: RET Kinase Activity Assay; type: biochemical; conditions: test concentration not given
Experimental: RET Kinase Activity Assay
as §1, with “RET” for “Tec”, “Maxwasorb” for “Maxisorb”
The test articles and controls (Staurosporine and Sutent) were prepared using the following assay buffer at 3× desired final concentration (50 mM […], 0.02 mg/mL BSA, 10 mM MgCl2, 0.1 mM Na3VO4, 1 mM EGTA, 75 μM ATP0.01% NP-40, 2 mM DTT in 10% glycerol/water). In a reaction plate, were added rapidly 20 μL test article (or control) and 20 μL RET (0.25 ng/μL final concentration). The plate was incubated for 15 minutes. To the reaction plate was added 20 μL of Pyk-2 (0.25 ng/μL final concentration). The plate was incubated at room temperature for one hour.
as §2, with “Envwasion” for “Envision”

Sequence of RET kinase (P07949 29-1114): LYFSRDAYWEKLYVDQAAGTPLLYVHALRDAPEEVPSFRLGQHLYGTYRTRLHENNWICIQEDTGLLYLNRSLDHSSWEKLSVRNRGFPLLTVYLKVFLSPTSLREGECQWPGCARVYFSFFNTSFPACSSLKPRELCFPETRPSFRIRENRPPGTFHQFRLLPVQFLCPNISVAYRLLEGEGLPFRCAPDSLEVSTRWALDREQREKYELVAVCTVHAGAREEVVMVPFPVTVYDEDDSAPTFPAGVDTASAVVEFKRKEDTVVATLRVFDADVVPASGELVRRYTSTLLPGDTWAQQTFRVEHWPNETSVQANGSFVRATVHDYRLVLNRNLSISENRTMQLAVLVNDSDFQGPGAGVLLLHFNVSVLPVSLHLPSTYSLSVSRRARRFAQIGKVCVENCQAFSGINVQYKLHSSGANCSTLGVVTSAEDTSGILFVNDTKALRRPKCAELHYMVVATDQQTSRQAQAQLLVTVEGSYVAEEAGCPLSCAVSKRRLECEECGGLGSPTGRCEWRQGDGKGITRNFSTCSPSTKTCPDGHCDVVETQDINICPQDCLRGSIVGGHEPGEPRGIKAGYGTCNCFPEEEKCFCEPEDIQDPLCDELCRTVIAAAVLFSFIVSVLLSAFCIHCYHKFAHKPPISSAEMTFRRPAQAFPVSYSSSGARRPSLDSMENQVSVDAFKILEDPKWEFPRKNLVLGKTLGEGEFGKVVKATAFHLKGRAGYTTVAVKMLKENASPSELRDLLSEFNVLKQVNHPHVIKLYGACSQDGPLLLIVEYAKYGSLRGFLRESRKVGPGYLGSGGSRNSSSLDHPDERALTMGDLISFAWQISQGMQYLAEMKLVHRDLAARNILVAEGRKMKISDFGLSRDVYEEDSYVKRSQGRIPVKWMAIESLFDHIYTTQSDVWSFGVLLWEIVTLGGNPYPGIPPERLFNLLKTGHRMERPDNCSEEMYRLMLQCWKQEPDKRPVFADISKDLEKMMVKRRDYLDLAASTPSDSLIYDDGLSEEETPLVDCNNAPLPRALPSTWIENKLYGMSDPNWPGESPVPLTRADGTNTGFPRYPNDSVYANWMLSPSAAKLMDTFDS

SMILES | Kinase Activity (Tec kinase inhibition) (Tec kinase) | Kinase Activity (RET kinase inhibition) (RET kinase) | inhibition at 10 µM (DLD-1 cancer cells) [%]
Brc1cnc2nnc(-c3ccccc3)n2c1 [Compound 1, 6-bromo-3-phenyl-[1,2,4]triazolo[4,3-a]pyrimidine] | A (A indicates 75-100% inhibition) | – | –
Brc1cnc2nnc(-c3ccc(-c4cccnc4)cc3)n2c1 [Compound 2, 6-bromo-3-(4-(pyridin-3-yl)phenyl)-[1,2,4]triazolo[4,3-a]pyrimidine] | B (B indicates 50-75% inhibition) | – | –
c1ccc(-c2nnc3ncc(-c4cccc5[nH]ccc45)cn23)cc1 [Compound 3, 6-(1H-indol-4-yl)-3-phenyl-[1,2,4]triazolo[4,3-a]pyrimidine] | A (A indicates 75-100% inhibition) | A (A indicates 75-100% inhibition) | 98
c1cc(-c2cnc3nnc(-c4ccncc4)n3c2)c2cc[nH]c2c1 [Compound 4, 6-(1H-indol-4-yl)-3-(pyridin-4-yl)-[1,2,4]triazolo[4,3-a]pyrimidine] | – | A (A indicates 75-100% inhibition) | –
c1ccc(Oc2ccc(-c3cnc4nnc(-c5ccncc5)n4c3)cc2)cc1 [Compound 6, 6-(4-phenoxyphenyl)-3-(pyridin-4-yl)-[1,2,4]triazolo[4,3-a]pyrimidine] | A (A indicates 75-100% inhibition) | A (A indicates 75-100% inhibition) | –
COc1ccc(-c2cnc3nnc(-c4ccc(CC(C)C)cc4)n3c2)cc1 [Compound 8, 3-(4-isobutylphenyl)-6-(4-methoxyphenyl)-[1,2,4]triazolo[4,3-a]pyrimidine] | B (B indicates 50-75% inhibition) | – | 74
CC(C)(C)c1ccc(-c2cnc3nnc(-c4ccc(C#N)cc4)n3c2)cc1 [Compound 9, 4-(6-(4-tert-butylphenyl)-[1,2,4]triazolo[4,3-a]pyrimidin-3-yl)benzonitrile] | B (B indicates 50-75% inhibition) | A (A indicates 75-100% inhibition) | 39
Cc1ccc(-c2cnc3nnc(-c4ccc(S(C)(=O)=O)cc4)n3c2)c2ccccc12 [Compound 10, 6-(4-methylnaphthalen-1-yl)-3-(4-(methylsulfonyl)phenyl)-[1,2,4]triazolo[4,3-a]pyrimidine] | – | A (A indicates 75-100% inhibition) | –

The next lines start with results.

Kinase Activity (Tec kinase inhibition) (Tec kinase) | Kinase Activity (RET kinase inhibition) (RET kinase) | SMILES | inhibition at 10 µM (DLD-1 cancer cells) [%]
B (B indicates 50-75% inhibition) | B (B indicates 50-75% inhibition) | c1ccc(Oc2ccccc2-c2cnc3nnc(-c4ccncc4)n3c2)cc1 [Compound 5, 6-(2-phenoxyphenyl)-3-(pyridin-4-yl)-[1,2,4]triazolo[4,3-a]pyrimidine] | 13
A (A indicates 75-100% inhibition) | A (A indicates 75-100% inhibition) | CS(=O)(=O)c1ccc(-c2nnc3ncc(-c4ccc(Oc5ccccc5)cc4)cn23)cc1 [Compound 7, 3-(4-(methylsulfonyl)phenyl)-6-(4-phenoxyphenyl)-[1,2,4]triazolo[4,3-a]pyrimidine] | 98
– | A (A indicates 75-100% inhibition) | CS(=O)(=O)c1ccc(-c2nnc3ncc(-c4ccccc4Oc4ccccc4)cn23)cc1 [Compound 11, 3-(4-(methylsulfonyl)phenyl)-6-(2-phenoxyphenyl)-[1,2,4]triazolo[4,3-a]pyrimidine] | –
